Article PMC11162475, “Rule-based omics mining reveals antimicrobial macrocyclic peptides against drug-resistant clinical isolates” (Nature Communications, 2024)
≈ marks a conversion by molar mass, not a printed value.

What was measured:
[1] = system: LRSA 20-1; experiment: microbe, parasite or virus in culture; format: cell-based, Staphylococcus aureus; settings: 20 h
Experimental: (§1) For MIC determination, Staphylococcus aureus ATCC25923, Bacillus subtilis 168, Micrococcus luteus DSM1790, Enterococcus faecalis OG1RF, Enterococcus faecium MCC2763, Escherichia coli DH5α and Pseudomonas aeruginosa PAO1 were used as indicator strains. Nisin and vancomycin were used as positive controls. A dilution series of massatide A, massatide B, vancomycin (16, 8, 4, 2, 1, 0.5, 0.25, 0.125, 0.0625, 0.0313 μg/mL) and sistertide A1, kebanetide A1, kebanetide A2, nisin (64, 32, 16, 8, 4, 2, 1, 0.5, 0.25, 0.125 μg/mL) were prepared in 96-well plate from 1–10th column. The indicator strains were added to the compound-containing well. The indicator strain culture with no antibiotics was prepared in the 11th column. The 12th column was filled with 200 μL empty MHB medium. The 96-well plate was incubated at 37 °C for 20 h (30 °C for M. luteus and B. subtilis). The OD600 was detected on MULTISKAN Sky (Thermo Scientific) and MIC values were determined. The MIC values of clinical isolates were determined by Sichuan Primed Shines Bio-tech Co., Ltd. (China) following similar protocol. Levofloxacin was used as a positive control.

[2] = system: MRSA 15-1; experiment: microbe, parasite or virus in culture; format: cell-based, Staphylococcus aureus; settings: 15-1, 20 h
Experimental: as §1

[3] = system: MRSA ATCC33591; experiment: microbe, parasite or virus in culture; format: cell-based, Staphylococcus aureus; settings: ATCC33591, 20 h
Experimental: as §1

[4] = system: MRSA ATCC43300; experiment: microbe, parasite or virus in culture; format: cell-based, Staphylococcus aureus; settings: ATCC43300, 20 h
Experimental: as §1

[5] = system: VMSA ATCC700699; experiment: microbe, parasite or virus in culture; format: cell-based, Staphylococcus aureus; settings: ATCC700699, 20 h
Experimental: as §1

[6] = system: VMSA ATCC700788; experiment: microbe, parasite or virus in culture; format: cell-based, Staphylococcus aureus; settings: ATCC700788, 20 h
Experimental: as §1

[7] = system: LREfa 20-1; experiment: microbe, parasite or virus in culture; format: cell-based, Enterococcus faecalis; settings: 20 h
Experimental: as §1

[8] = system: VREfa ATCC51575; experiment: microbe, parasite or virus in culture; format: cell-based, Enterococcus faecalis; settings: ATCC51575, 20 h
Experimental: as §1

[9] = system: ICR mice; experiment: Mouse acute toxicity test; format: in vivo
Experimental: Massatide A was dissolved in saline to the required concentration for the experiments. Six-week-old specific pathogen-free male ICR mice weighing 18–20 g were randomly divided into 4 groups (4 per group) and administered in a single intraperitoneal injection. Group 1 animals received 0.9% saline only, while groups 2–4 were given massatide A at 10, 30, and 50 mg/kg, respectively. The animals were continuously observed for general behavioral changes for 5 days and survival rate was recorded.

[10] = system: MRSA ATCC43300; experiment: Mouse septicaemia model; format: in vivo; settings: for number of new dead mouse: infection controlled in mouse; for survival rate of mice: 5 per group
Experimental: Briefly, 6-week-old specific pathogen-free male ICR mice weighing 18–20 g were randomly divided into 4 groups (5 per group). Each mouse received an intraperitoneal injection on the left side of the abdomen with 0.4 ml, 1.8 ×10^10 c.f.u./mL MRSA ATCC43300 suspended in saline containing 5% yeast in each mouse. One hour after infection, the mice were injected intraperitoneally with saline (negative control), massatide A dissolved in saline at 10 mg/kg, 30 mg/kg and 50 mg/kg (experimental groups). […] We injected 0.4 ml solution to each mouse. Animal deaths were recorded for 7 days, and the survival rates were calculated to generate the mouse survival curve.

[11] = system: Escherichia coli DH5α; format: cell-based; settings: DH5α, 20 h
Experimental: as §1

[12] = system: Pseudomonas aeruginosa PAO1; format: cell-based; settings: PAO1, 20 h
Experimental: as §1

[13] = system: tested gram-positive pathogens, including vancomycin intermediate-resistant strains; format: cell-based; settings: 20 h
Experimental: as §1

[14] = 300 μl of water added to 0.9 mg solid; visual, not quantitative

Structure (SMILES): C/C=C1\NC(=O)C(N(C)C)C(C)SC[C@@H](C(=O)N[C@H](CC)C(=O)N[C@H](C(=O)N[C@@H](C)C(=O)N[C@H](C)C(=O)N[C@@H](Cc2ccccc2)C(=O)N[C@@H](C)C(=O)NC2C(=O)NCC(=O)N[C@@H](Cc3ccc(O)cc3)C(=O)N[C@@H](Cc3ccccc3)C(=O)N[C@H](C)C(=O)N/C=C\SC2C)C(C)C)NC(=O)[C@@H]2CCCN2C(=O)[C@H](C(C)C)NC1=O (stereo partly drawn) [Massatide A (1), massatide A]
- MIC [1]: 0.25 µg/mL (≈ 0.153 µM)
- MIC [2]: 2 µg/mL (≈ 1.22 µM)
- MIC [3]: 1 µg/mL (≈ 0.612 µM)
- MIC [4]: 0.25 µg/mL (≈ 0.153 µM)
- MIC [5]: 4 µg/mL (≈ 2.45 µM)
- MIC [6]: 4 µg/mL (≈ 2.45 µM)
- MIC [7]: 4 µg/mL (≈ 2.45 µM)
- MIC [8]: 4 µg/mL (≈ 2.45 µM)
- number of new dead mouse ([9]; 10 mg/kg i.p., day 1, 4 mice per group): 0
- number of new dead mouse ([9]; 10 mg/kg i.p., day 2, 4 mice per group): 0
- number of new dead mouse ([9]; 10 mg/kg i.p., day 3, 4 mice per group): 0
- number of new dead mouse ([9]; 10 mg/kg i.p., day 5, 4 mice per group): 0
- number of new dead mouse ([9]; 30 mg/kg i.p., day 1, 4 mice per group): 0
- number of new dead mouse ([9]; 30 mg/kg i.p., day 2, 4 mice per group): 0
- number of new dead mouse ([9]; 30 mg/kg i.p., day 3, 4 mice per group): 0
- number of new dead mouse ([9]; 30 mg/kg i.p., day 5, 4 mice per group): 0
- number of new dead mouse ([9]; 50 mg/kg i.p., day 1, 4 mice per group): 0
- number of new dead mouse ([9]; 50 mg/kg i.p., day 2, 4 mice per group): 0
- number of new dead mouse ([9]; 50 mg/kg i.p., day 3, 4 mice per group): 0
- number of new dead mouse ([9]; 50 mg/kg i.p., day 5, 4 mice per group): 0
- survival / signs of acute toxicity ([9]; male ICR mice, single intraperitoneal injection, 10-50 mg/kg, 5 days, 4 per group): all treated mice survived without any signs of acute toxicity
- number of new dead mouse ([10]; 10mg/kg, time 2.29 day): 1
- number of new dead mouse ([10]; 10mg/kg, time 3 day): 0
- number of new dead mouse ([10]; 10mg/kg, time 4 day): 0
- number of new dead mouse ([10]; 10mg/kg, time 6 day): 0
- number of new dead mouse ([10]; 10mg/kg, time 7 day): 0
- number of new dead mouse ([10]; 30mg/kg, time 2.29 day): 1
- number of new dead mouse ([10]; 30mg/kg, time 3 day): 0
- number of new dead mouse ([10]; 30mg/kg, time 4 day): 0
- number of new dead mouse ([10]; 30mg/kg, time 6 day): 0
- number of new dead mouse ([10]; 30mg/kg, time 7 day): 0
- number of new dead mouse ([10]; 50mg/kg, time 2.29 day): 0
- number of new dead mouse ([10]; 50mg/kg, time 3 day): 0
- number of new dead mouse ([10]; 50mg/kg, time 4 day): 0
- number of new dead mouse ([10]; 50mg/kg, time 6 day): 0
- number of new dead mouse ([10]; 50mg/kg, time 7 day): 0
- survival rate of mice ([10]; single dose 10 mg/kg i.p. 1 h after i.p. infection with 7.2 × 10^9 c.f.u. MRSA ATCC43300, 7 days): 80%
- survival rate of mice ([10]; single dose 50 mg/kg i.p. 1 h after i.p. infection with 7.2 × 10^9 c.f.u. MRSA ATCC43300, 7 days): 100%
- MIC [11]: >128 µg/mL
- MIC [12]: >128 µg/mL
- MIC (potency) against tested gram-positive pathogens [13]: below 4 μg/mL
- water solubility (observation) [14]: not fully dissolved
